Results on one compound are retold here after US20040152666A1, “Methods of reducing complications associated with peritoneal dialysis in patients with diabetes obesity and/or hyperlipidemia” (priority 2002, published 2004).

One data set concerns rats. As to the kind of experiment: Acute peritoneal dialysis in rats with NAG-based or glucose-based dialysis fluid. The format is in vivo, rat. The method, then:
Peritoneal transport kinetics as well as blood insulin and glucose levels were evaluated in rats during acute peritoneal dialysis. Peritoneal dialysis fluids tested in the studies described herein were prepared in the laboratory and sterilized by filtration. Electrolyte and buffer compositions of both solutions were identical, similar to those contained in commercially available fluids. Concentrations of the individual solutes were as follows (mmol/l): Na 132, Ca 1.75, Mg 0.75, Cl 102, lactate 35. Glucose or NAG were used as osmotic solutes, both in a concentration of 220 mmol/l. Osmolality of the glucose-based dialysis fluid was 478 mOsm/kg H20 and of the solution containing NAG 476 mOsm/kg H2O; pH of the studied fluids was 7.02 and 7.03, respectively.
Acute peritoneal dialysis was performed in male Wistar rats (b.w.270-330 g) according to the methods described previously (see ref. 10 below). For 24 hours prior to the experiments, animals were given only drinking water and no food. At the beginning of the study, under ether anesthesia, blood samples were collected from the tail vein and thereafter 20 ml of the dialysis fluid was infused via a polyvinyl catheter (1.2 gauge; Vygon, Helsingborg, Sweden); the catheter was instantly removed after infusion. Thereafter the rats were transferred to individual cages, signs of anesthesia disappeared within 5 minutes. Dialysis fluid dwelled in the peritoneal cavity for 1 hour, 3 hours or 6 hours. 12 animals were studied at each time interval: 6 in the NAG group and 6 in the glucose group. During the dialysis animals were conscious with free access to drinking water but no food. At the end of the dwell time rats were again anesthetized with ether, blood samples were collected from the heart and then animals were sacrificed by exsanguination from heart. Afterwards the peritoneal cavity was opened and the dialysate was collected with a pipette. Dialysate volume was measured by weight. Blood and dialysate samples were centrifuged (1500 rpm for 10 minutes) and serum or dialysate supernatant were stored at −20° C. for further analysis. In dialysate samples drained after 6 hrs dwell cell count was determined in a Neubauer chamber.
Serum and dialysate samples were analyzed for creatinine (enzymatic test, Analco, Warsaw) and total protein were analyzed using Lowry method (11). Sodium concentration in the unused dialysis fluid and dialysate was measured with flame photometry (Eppendorf, Germany). Glucose concentration in serum was measured with an enzymatic test (Sigma Chemical, St.Louis, Mo., U.S.A.). Insulin concentration in serum was measured with ELISA kit (Mercodia, Uppsala, Sweden). Hyaluronan concentration in the dialysate samples was measured with ELISA (Chugai, Japan). Sodium sieving and permeability coefficient for creatinine were calculated for exchanges with 1 hour dwell. Results are presented as mean±SD. Statistical analysis was performed with Mann-Whitney test for unpaired data. A p value less than 0.05 was considered significant.

For data set [1] the following is noted: intraperitoneal infusion of radiolabeled NAG (ref. 19); cited from earlier work.
Data set [2] relates to human peritoneal mesothelial cells. Particulars: in vitro, culture medium supplemented with NAG, within six hours (ref. 12); cited from earlier work.

Consider `CC(=O)N[C@H]1C(O)O[C@H](CO)[C@@H](O)[C@@H]1O` (stereo partly shown) [NAG, N-acetylglucosamine], for which the “dialysate cell count (intraperitoneal inflammation)” value in the data set on rats (rat, in vivo, ip) is 945±251 cells/μl. Also, the “dialysate volume compared with glucose-based solution” value with rats (rats, 1 and 3 hrs exchange) is on record as “higher”. Besides, the “sodium sieving (D/D0)” value in the data set with rats (rats, 1 hour exchange, mean±SD) came to 0.955±0.034. Besides, the “increase of blood insulin level after 3 hours dialysis” value with rats (rats, 3 hours dialysis, mean±SD) was 4.5 ± 4.7 pmol/L. This compound returned an end dialysate volume in the data set on rats (rats, 6 hour dwell, osmotic solute 220 mmol/l, 20 ml infused, mean±SD) of 34.5 ± 1.7 mL. In addition, the “peritoneal permeability to total protein, dialysate/serum ratio×1000 (D/S×1000)” value in the data set on rats (rats, 6 hrs dwell, osmotic solute 220 mmol/l, mean±SD) stood at 9.7±2.5. The “increase of blood glucose level” value in the data set on rats (rats, after 1 hour dwell of NAG dialysis fluid) came out at 39%; with rats (rats, after 3 hours dwell of NAG dialysis fluid) it was 54%; in the data set on rats (rats, after 6 hours dwell of NAG dialysis fluid), 116%. Also, in the data set with rats (rats, after 3 hours dialysis), the “increase in blood insulin level, times weaker than with dialysis fluid containing glucose” value was “about 12 times”. Besides, in the data set on rats (rats, dialysate after 6 hrs dwell, mean±SD), the “hyaluronan concentration in the dialysate” value came to 60.3 ± 7.8 ng/mL. The “blood glucose concentration, highest observed during dialysis” value in the data set with rats (rats, osmotic solute 220 mmol/l, dwell 1, 3 or 6 hours, mean±SD) was 91 ± 9 mg/dL. Besides, the “increase of blood insulin level (maximal) during dialysis” value in the data set with rats (rats, osmotic solute 220 mmol/l, mean±SD) is 5.0 ± 5.4 pmol/L. In addition, the “appearance of the tracer in the exhaled air” value in data set [1] is listed as “about 25%”. Further, the “appearance of the tracer in urine” value in data set [1] is given as “about 20%”. For the same compound, in data set [2], the synthesis of hyaluronan result is on record as “increase within six hours synthesis of hyaluronan”.
